According to patent publication US10188612B2, “Pharmaceutical compositions for inhalation” (VECTURA LIMITED, priority 2000, dated 2019):

Experiment: Standard dissolution test (sintered glass disc over stirred reservoir of deionised water)
Type: physicochemical
Details: FIG. 2
Protocol: The samples were analysed in a Cecil Aquarius CE7200 ultraviolet spectrophotometer at a wavelength of 200 nm. The concentration of the samples was calculated with a previously prepared calibration graph and the concentration versus time was plotted.
The apparatus used is shown in FIG. 1 and comprises a 195 cm^3 reservoir (1) filled with deionised water (2) and having an inlet port (3) and an outlet port (4). A sintered glass disc (5) of approximately 50 mm diameter and 3 mm depth occupies an opening at the top of the reservoir (1) and sits horizontally in contact with the water (2). The water in the reservoir is stirred by a magnetic stirrer (6).
A known mass of approximately 1 mg of the formulation (7) to be tested is placed on the sinter and a timer is started. At various times, 1 cm^3 samples of the water are removed from the reservoir and are immediately replaced with 1 cm^3 deionised water to maintain the volume in the reservoir. The concentration of the active substance in the 1 cm^3 samples is determined by a suitable method.

In the case of `C[N+]1(C)CCC(OC(=O)C(O)(c2ccccc2)C2CCCC2)C1` (centres unmarked) [glycopyrrolate], the “time at which the maximum concentration is achieved” value is reported as 10 min and the “concentration of active substance in the reservoir at the first time point” value (at 5 minutes, UV at 200 nm) is reported as “greater than 10 mg/l”.
